Results as given in ChEMBL document CHEMBL4387717, “Structure guided drug design to develop kallikrein 5 inhibitors to treat Netherton syndrome” (Bioorg Med Chem Lett, 2019).
In brackets after ≈: the same amount, converted by molar mass.

How the values were obtained:
Kallikrein-5 = target: T1, Kallikrein-5 (Homo sapiens, UniProt Q9Y337); assay: Inhibition of recombinant 6His-Q-FLAG tagged human KLK5 expressed in baculovirus infected Sf9 insect cells using (Tos-Gly-Pro-Arg)2[R110].2TFA as substrate measured at 30 secs interval for 5 mins by fluorescence intensity assay
T1 sequence (Q9Y337 whole entry): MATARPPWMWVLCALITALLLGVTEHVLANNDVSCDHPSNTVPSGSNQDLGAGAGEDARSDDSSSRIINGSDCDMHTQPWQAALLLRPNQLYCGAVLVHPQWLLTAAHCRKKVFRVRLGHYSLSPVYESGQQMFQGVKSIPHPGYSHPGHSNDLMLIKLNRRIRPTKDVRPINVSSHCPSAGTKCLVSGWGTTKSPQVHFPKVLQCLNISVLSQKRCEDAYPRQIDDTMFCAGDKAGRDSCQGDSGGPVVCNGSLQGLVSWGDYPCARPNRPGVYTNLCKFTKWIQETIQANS

Kallikrein-1 = Kallikrein-1 (Homo sapiens, UniProt P06870); assay: Inhibition of recombinant bovine enterokinase activated N-terminal His-tagged recombinant human KLK1 (19 to 262 residues) expressed in baculovirus infected Sf9 insect cells using 3',6'-bis(prolylphenylalanylarginylamino)3H-spiro(2-benzofuran-1,9'-xanthen)-3-one;TFA as substrate measured at 30 secs interval for 5 mins by fluorescence intensity assay
Homo sapiens = species: Homo sapiens; assay: Selectivity index, ratio of compound effect for inhibition of recombinant bovine enterokinase activated N-terminal His-tagged recombinant human KLK1 (19 to 262 residues) expressed in baculovirus infected Sf9 insect cells to compound effect for inhibition of recombinant 6His-Q-FLAG tagged human KLK5 expressed in baculovirus infected insect Sf9 cells
[1] = Half life in pH 4 to 8 buffer at 0.05 mg/ml over 24 hrs; format: physicochemical
[2] = Absorption property in methanol assessed as molar extinction co-efficient by UV-spectra analysis; format: physicochemical
[3] = Half life in pH 6 buffer at 0.05 mg/ml under H2O2-induced oxidative condition over 24 hrs; format: physicochemical; conditions: buffer with H2O2, pH 6
[4] = Solubility of the compound in pH 4 Britton-Robinson buffer at 24 hrs; format: physicochemical; conditions: buffer, pH 4, 24 h
[5] = Solubility of the compound in pH 6 Britton-Robinson buffer at 24 hrs; format: physicochemical; conditions: buffer, pH 6, 24 h
[6] = Solubility of the compound in water at 24 hrs; format: physicochemical
[7] = Half life in pH 8 buffer at 0.05 mg/ml under H2O2-induced oxidative condition over 24 hrs; format: physicochemical; conditions: buffer with H2O2, pH 8
[8] = Absorption property in methanol assessed as maximum absorption wavelength by UV-spectra analysis; format: physicochemical

Kallikrein-1, sequence (P06870 whole entry, the tested form may be a part): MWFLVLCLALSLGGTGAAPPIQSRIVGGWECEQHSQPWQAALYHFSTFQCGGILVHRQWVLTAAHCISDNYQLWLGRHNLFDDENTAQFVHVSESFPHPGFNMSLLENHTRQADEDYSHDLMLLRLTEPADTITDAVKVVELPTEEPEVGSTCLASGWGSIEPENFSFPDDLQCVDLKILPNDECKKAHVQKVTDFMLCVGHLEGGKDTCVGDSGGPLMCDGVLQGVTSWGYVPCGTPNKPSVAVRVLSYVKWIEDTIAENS

| IC50 (Kallikrein-5; read-out: pIC50 (converted)) [µM] | IC50 (Kallikrein-1) [µM] | SMILES | other results |
| --- | --- | --- | --- |
| 126 | 398 | Cn1ccnc1CNc1ccc(C(=N)N)cc1 | – |
| 6.31 | 79.4 | CC(C)COc1cc(NCc2nc(-c3ccccc3)c[nH]2)ccc1C(=N)N | – |
| 0.794 | > 50.1 | N=C(N)c1ccc(NCc2nc(-c3ccccc3)c[nH]2)cc1OCC(N)=O | – |
| 0.0794 | 15.8 | N=C(N)c1ccc(NCc2nc(-c3ccccc3)c[nH]2)cc1OCC(=O)NC1CC1 | – |
| 0.2 | 50.1 | N=C(N)c1ccc(NCc2nc(-c3ccccc3)c[nH]2)cc1OCCC1CC1 | Selectivity Index (Homo sapiens): 250 |
| 0.0316 | > 2.51 | N=C(N)c1ccc(NCc2nc(-c3ccccc3)c[nH]2)cc1OCc1ccccc1Cl | – |
| 0.0631 | > 5.01 | N=C(N)c1ccc(NCc2nc(-c3ccccc3)c[nH]2)cc1OCc1ccc(Cl)cc1 | – |
| 25.1 | 63.1 | N=C(N)c1ccc(NCc2ncc[nH]2)cc1 | – |
| 6.31 | 25.1 | N=C(N)c1ccc(NCc2nc(-c3ccccc3)c[nH]2)cc1 | – |
| 0.0794 | 39.8 | N=C(N)c1ccc(NCc2nc(-c3ccccc3)c[nH]2)cc1OCc1ncccn1 | – |
| 0.1 | 12.6 | N=C(N)c1ccc(NCc2nc(-c3ccccc3)c[nH]2)cc1OCc1ncco1 | – |
| 10 | 2 | N=C(N)c1ccc(NCc2nc3cc(Cl)ccc3[nH]2)cc1 | – |
| 0.0398 | > 6.31 | N=C(N)c1ccc(NCc2nc(-c3ccccc3)c[nH]2)cc1OCC(=O)NCC1CC1 | half-life at 0.05 mg/ml [1]: > 1000 h; Activity [2]: > 1000 a.u.L/mol.cm; half-life at 0.05 mg/ml [3]: 26.7 h; solubility [4]: Soluble; solubility [5]: Soluble; solubility at 24 h [6]: 3000 µg/mL (≈ 7.17 mM); half-life at 0.05 mg/ml [7]: 14 h; Activity [8]: > 290 nm |
| 15.8 | 6.31 | Cn1c(CNc2ccc(C(=N)N)cc2)nc2ccccc21 | – |
| 3.98 | 79.4 | N=C(N)c1ccc(NCc2nc(-c3ccccc3)c[nH]2)cc1OCCO | – |
| 15.8 | 79.4 | CN(C)CCOc1cc(NCc2nc(-c3ccccc3)c[nH]2)ccc1C(=N)N | – |
| 0.251 | 31.6 | CNC(=O)COc1cc(NCc2nc(-c3ccccc3)c[nH]2)ccc1C(=N)N | – |
| 0.0794 | 25.1 | N=C(N)c1ccc(NCc2nc(-c3ccccc3)c[nH]2)cc1OCc1ccccc1 | IC50 (Kallikrein-5; read-out: IC50): < 0.01 µM; Selectivity Index (Homo sapiens): 300 |
| 0.316 | 6.31 | CCOc1cc(NCc2nc(-c3ccccc3)c[nH]2)ccc1C(=N)N | Selectivity Index (Homo sapiens): 20 |
| 10 | 6.31 | Cc1ccc2[nH]c(CNc3ccc(C(=N)N)cc3)nc2c1 | – |
| 0.0794 | > 5.01 | N=C(N)c1ccc(NCc2nc(-c3ccccc3)c[nH]2)cc1OCc1cccc(Cl)c1 | – |
| 12.6 | 31.6 | COc1ccc2[nH]c(CNc3ccc(C(=N)N)cc3)nc2c1 | – |
| 0.126 | 20 | N=C(N)c1ccc(NCc2nc(-c3ccccc3)c[nH]2)cc1OCc1ccccn1 | – |
| 0.794 | 50.1 | N=C(N)c1ccc(NCc2nc(-c3ccccc3)c[nH]2)cc1OCC1CC1 | Selectivity Index (Homo sapiens): 60 |
| 20 | 39.8 | N=C(N)c1ccc(NCc2nc3ccccc3[nH]2)cc1 | – |
